Reference: ChEMBL document CHEMBL1201862, “PubChem BioAssay data set” (2004)
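In this assay, cells in 96-well plates receive the compound at five concentrations for 48 hours. Endpoints are linearly interpolated between the surrounding concentrations. GI50 is the concentration that inhibits growth by half.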 The source made the active and inactive calls. Cut-off read from the data, not from the text of the source: active = GI50 up to about 1.1 µM and inactive = higher.

Tests used:
Experiment in all cases: growth of human tumour cells (NCI), 48 h
DMS-273 = test system: DMS-273
RXF 631 = test system: RXF 631
COLO 205 = test system: COLO 205
XF498 = test system: XF498
RXF 393 = test system: RXF 393
NCI-H522 = test system: NCI-H522
SF-268 = test system: SF-268
OVCAR-3 = test system: OVCAR-3
SK-MEL-2 = test system: SK-MEL-2
HL-60 = test system: HL-60
SK-MEL-5 = test system: SK-MEL-5
UACC-257 = test system: UACC-257
ACHN = test system: ACHN
NCI-H23 = test system: NCI-H23
LOX IMVI = test system: LOX IMVI
SN12C = test system: SN12C
SNB-19 = test system: SNB-19
UACC-62 = test system: UACC-62
EKVX = test system: EKVX
NCI-H460 = test system: NCI-H460
K562 = test system: K562
SF-539 = test system: SF-539
M14 = test system: M14
A498 = test system: A498
A549 = test system: A549
HOP-92 = test system: HOP-92
HCT-15 = test system: HCT-15
Malme-3M = test system: Malme-3M
786-0 = test system: 786-0
TK-10 = test system: TK-10
SF-295 = test system: SF-295
OVCAR-8 = test system: OVCAR-8
DLD-1 = test system: DLD-1
M19-MEL = test system: M19-MEL
NCI-H226 = test system: NCI-H226
SNB-75 = test system: SNB-75
SW-620 = test system: SW-620
U-251 = test system: U-251
OVCAR-5 = test system: OVCAR-5
HOP-18 = test system: HOP-18
OVCAR-4 = test system: OVCAR-4
HCC 2998 = test system: HCC 2998
CCRF-CEM = test system: CCRF-CEM
LXFL 529 = test system: LXFL 529
SNB-78 = test system: SNB-78
SK-OV-3 = test system: SK-OV-3
DMS-114 = test system: DMS-114
HT-29 = test system: HT-29
UO-31 = test system: UO-31
HOP-62 = test system: HOP-62
IGROV-1 = test system: IGROV-1
KM-20L2 = test system: KM-20L2
KM12 = test system: KM12
HCT-116 = test system: HCT-116
SK-MEL-28 = test system: SK-MEL-28
SR = test system: SR
MOLT-4 = test system: MOLT-4
CAKI-1 = test system: CAKI-1
RPMI-8226 = test system: RPMI-8226

## COc1c(O)ccc(/C=N/NC(=S)NCOCCOC(C)=O)c1OC
DMS-273
  GI50: > 100 µM (inactive)
RXF 631
  GI50: > 100 µM (inactive)
COLO 205
  GI50: > 100 µM (inactive)
XF498
  GI50: > 100 µM (inactive)
RXF 393
  GI50: > 100 µM (inactive)
NCI-H522
  GI50: > 100 µM (inactive)
SF-268
  GI50: > 100 µM (inactive)
OVCAR-3
  GI50: > 100 µM (inactive)
SK-MEL-2
  GI50: > 100 µM (inactive)
HL-60
  GI50: > 100 µM (inactive)
SK-MEL-5
  GI50: > 100 µM (inactive)
UACC-257
  GI50: > 100 µM (inactive)
ACHN
  GI50: > 100 µM (inactive)
NCI-H23
  GI50: > 100 µM (inactive)
LOX IMVI
  GI50: > 100 µM (inactive)
SN12C
  GI50: > 100 µM (inactive)
SNB-19
  GI50: > 100 µM (inactive)
UACC-62
  GI50: > 100 µM (inactive)
EKVX
  GI50: > 100 µM (inactive)
NCI-H460
  GI50: > 100 µM (inactive)
K562
  GI50: > 100 µM (inactive)
SF-539
  GI50: > 100 µM (inactive)
M14
  GI50: > 100 µM (inactive)
A498
  GI50: > 100 µM (inactive)
A549
  GI50: > 100 µM (inactive)
HOP-92
  GI50: > 100 µM (inactive)
HCT-15
  GI50: > 100 µM
Malme-3M
  GI50: > 100 µM (inactive)
786-0
  GI50: > 100 µM (inactive)
TK-10
  GI50: > 100 µM (inactive)
SF-295
  GI50: > 100 µM (inactive)
OVCAR-8
  GI50: > 100 µM (inactive)
DLD-1
  GI50: > 100 µM (inactive)
M19-MEL
  GI50: > 100 µM (inactive)
NCI-H226
  GI50: > 100 µM (inactive)
SNB-75
  GI50: > 100 µM (inactive)
SW-620
  GI50: > 100 µM (inactive)
U-251
  GI50: > 100 µM (inactive)
OVCAR-5
  GI50: > 100 µM (inactive)
HOP-18
  GI50: > 100 µM (inactive)
OVCAR-4
  GI50: > 100 µM (inactive)
HCC 2998
  GI50: > 100 µM (inactive)
CCRF-CEM
  GI50: > 100 µM (inactive)
LXFL 529
  GI50: > 100 µM (inactive)
SNB-78
  GI50: > 100 µM (inactive)
SK-OV-3
  GI50: > 100 µM (inactive)
DMS-114
  GI50: > 100 µM (inactive)
HT-29
  GI50: > 100 µM (inactive)
UO-31
  GI50: > 100 µM (inactive)
HOP-62
  GI50: > 100 µM (inactive)
IGROV-1
  GI50: > 100 µM (inactive)
KM-20L2
  GI50: > 100 µM (inactive)
KM12
  GI50: > 100 µM (inactive)
HCT-116
  GI50: > 100 µM (inactive)
SK-MEL-28
  GI50: > 100 µM (inactive)

## COc1ccc(/C=C2\CCC(C)(CN(C)C)C2=O)cc1 (configuration not stated)
DMS-273
  GI50: > 100 µM (inactive)
RXF 631
  GI50: 40.4 µM (inactive)
COLO 205
  GI50: > 100 µM (inactive)
XF498
  GI50: > 100 µM (inactive)
RXF 393
  GI50: > 100 µM (inactive)
NCI-H522
  GI50: 16.3 µM (inactive)
SF-268
  GI50: > 100 µM (inactive)
OVCAR-3
  GI50: > 100 µM (inactive)
SK-MEL-2
  GI50: > 100 µM (inactive)
HL-60
  GI50: 56.4 µM (inactive)
SK-MEL-5
  GI50: > 100 µM (inactive)
UACC-257
  GI50: > 100 µM (inactive)
ACHN
  GI50: > 100 µM (inactive)
NCI-H23
  GI50: > 100 µM (inactive)
LOX IMVI
  GI50: > 100 µM (inactive)
SN12C
  GI50: > 100 µM (inactive)
SNB-19
  GI50: 6.18 µM (inactive)
UACC-62
  GI50: > 100 µM (inactive)
EKVX
  GI50: > 100 µM (inactive)
NCI-H460
  GI50: > 100 µM (inactive)
K562
  GI50: 64 µM (inactive)
SF-539
  GI50: > 100 µM (inactive)
SR
  GI50: > 10 µM (inactive)
M14
  GI50: > 100 µM (inactive)
A498
  GI50: > 100 µM (inactive)
A549
  GI50: > 100 µM (inactive)
HOP-92
  GI50: > 100 µM (inactive)
HCT-15
  GI50: 60.8 µM
Malme-3M
  GI50: > 100 µM (inactive)
786-0
  GI50: > 100 µM (inactive)
TK-10
  GI50: > 100 µM (inactive)
SF-295
  GI50: > 100 µM (inactive)
OVCAR-8
  GI50: > 100 µM (inactive)
DLD-1
  GI50: > 100 µM (inactive)
M19-MEL
  GI50: > 100 µM (inactive)
NCI-H226
  GI50: > 100 µM (inactive)
SNB-75
  GI50: > 100 µM (inactive)
SW-620
  GI50: > 100 µM (inactive)
U-251
  GI50: 76.4 µM (inactive)
OVCAR-5
  GI50: > 100 µM (inactive)
HOP-18
  GI50: > 100 µM (inactive)
OVCAR-4
  GI50: > 100 µM (inactive)
HCC 2998
  GI50: > 100 µM (inactive)
LXFL 529
  GI50: > 100 µM (inactive)
SNB-78
  GI50: > 100 µM (inactive)
MOLT-4
  GI50: > 100 µM (inactive)
CAKI-1
  GI50: 18.7 µM (inactive)
DMS-114
  GI50: 76 µM (inactive)
HT-29
  GI50: > 100 µM (inactive)
UO-31
  GI50: > 100 µM (inactive)
HOP-62
  GI50: > 100 µM (inactive)
IGROV-1
  GI50: > 100 µM (inactive)
KM-20L2
  GI50: > 100 µM (inactive)
KM12
  GI50: > 100 µM (inactive)
RPMI-8226
  GI50: 38 µM (inactive)
HCT-116
  GI50: > 100 µM (inactive)
SK-MEL-28
  GI50: > 100 µM (inactive)
